22 molecules from ChEMBL document CHEMBL5370616, “Novel Nitric Oxide Donor-Azole Conjugation Strategy for Efficient Treatment of Cryptococcus neoformans Infections” (J Med Chem, 2023) can be followed below.

Values after ≈ are worked out from the molar mass of the structure shown. Active and inactive are the calls of the source. No cut-off for these calls is given here.

Test [1] deals with Candida albicans. Nature of the test: Antifungal activity against Candida albicans SC5314 assessed as reduction in fungal growth incubated for 48 hrs by CLSI protocol based microplate reader analysis. It is filed as functional.
In the next test the test system is Nakaseomyces glabratus. As to the kind of experiment: Antifungal activity against Candida glabrata 10639 assessed as reduction in fungal growth incubated for 48 hrs by CLSI protocol based microplate reader analysis. In kind it is functional.
In test [2] the test system is Cryptococcus neoformans. As to the kind of experiment: Antifungal activity against Cryptococcus neoformans H99 assessed as reduction in fungal growth incubated for 72 hrs by CLSI protocol based microplate reader analysis. In kind it is functional.
Test [3] concerns Candida albicans. As to the kind of experiment: Antifungal activity against Candida albicans 0304103 assessed as reduction in fungal growth incubated for 48 hrs by CLSI protocol based microplate reader analysis. In kind it is functional.
For test [4], the system named is Cryptococcus neoformans. Nature of the test: Fungicidal activity against Cryptococcus neoformans H99 assessed as reduction in colony forming units at 4 to 8 ug/ml incubated upto 72 hrs by time-kill assay. It is filed as functional, organism-based. The conditions noted are these: dose 4-8 µg/ml.
In test [5] the test system is Cryptococcus neoformans. Nature of the test: Antifungal activity against Cryptococcus neoformans H99 assessed as reduction in fungal growth at 0.25 to 8 ug/ml incubated upto 72 hrs by microplate reader analysis. It is filed as functional, organism-based. The following applies: dose 0.25-8 µg/ml.
Test [6] relates to Cryptococcus neoformans. As to the kind of experiment: Inhibition of biofilm formation in Cryptococcus neoformans H99 at 0.25 ug/ml incubated for 24 hrs by XTT reduction assay. In kind it is functional.
Test [7] has as its system Cryptococcus neoformans. As to the kind of experiment: Inhibition of biofilm formation in Cryptococcus neoformans H99 at 16 to 64 ug/ml incubated for 24 hrs by XTT reduction assay. It is filed as functional, organism-based. The following applies: dose 16-64 µg/ml. Background: Formazan colour is commonly taken as a measure of viable cells.

Consider `CCN(CC)/[N+]([O-])=N/Oc1cc(N(C)CC(O)(Cn2cncn2)c2ccc(F)cc2F)c([N+](=O)[O-])cc1[N+](=O)[O-]` (stereo not given), for which the MIC80 (in general, the lowest concentration that inhibits either 80% of growth or 80% of the strains tested, depending on the study) in the test on Candida albicans [1] was over 64 µg/mL; in the test with Nakaseomyces glabratus, over 64 µg/mL; with Cryptococcus neoformans [2], 64 µg/mL (≈ 113 µM); in the test with Candida albicans [3], over 64 µg/mL.

As to `CN(Cc1ccc(OCCCOc2ccc(CC(=O)OCC#CCOc3no[n+]([O-])c3S(=O)(=O)c3ccccc3)cc2)cc1)CC(O)(Cn1cncn1)c1ccc(F)cc1F` (stereo not given), the MIC80 was 16 µg/mL (≈ 18.6 µM) in the test with Candida albicans [1], 2 µg/mL (≈ 2.33 µM) with Nakaseomyces glabratus, 2 µg/mL (≈ 2.33 µM) in the test with Cryptococcus neoformans [2] and over 64 µg/mL in the test on Candida albicans [3].

On to `CN(Cc1ccc(OCCCOc2ccc(CC(=O)OCc3ccccc3CO[N+](=O)[O-])cc2)cc1)CC(O)(Cn1cncn1)c1ccc(F)cc1F` (stereo not given), for which the MIC80 with Candida albicans [1] was 1 µg/mL (≈ 1.37 µM); in the test with Nakaseomyces glabratus, 1 µg/mL (≈ 1.37 µM); in the test on Cryptococcus neoformans [2], 0.25 µg/mL (≈ 0.342 µM); in the test with Candida albicans [3] it was over 64 µg/mL.

With `CN(Cc1ccc(OCCCOc2ccc(CC(=O)O)cc2)cc1)CC(O)(Cn1cncn1)c1ccc(F)cc1F` (stereo not given), the MIC80 in the test with Cryptococcus neoformans [2] turned out to be 2 µg/mL (≈ 3.53 µM). In the test on Cryptococcus neoformans [4], the result was inactive.

Consider `CN(CC(O)(Cn1cncn1)c1ccc(F)cc1F)c1cc(O/N=[N+](\[O-])N2CCC(O)CC2)c([N+](=O)[O-])cc1[N+](=O)[O-]` (stereo not given), for which the MIC80 in the test with Candida albicans [1] was over 64 µg/mL; in the test on Nakaseomyces glabratus it was over 64 µg/mL; in the test on Cryptococcus neoformans [2] it was 64 µg/mL (≈ 108 µM); with Candida albicans [3], over 64 µg/mL.

On to `CN(Cc1ccc(OCCCOc2ccc(CC(=O)NCCOc3no[n+]([O-])c3S(=O)(=O)c3ccccc3)cc2)cc1)CC(O)(Cn1cncn1)c1ccc(F)cc1F` (stereo not given), for which the MIC80 in the test with Candida albicans [1] was 2 µg/mL (≈ 2.4 µM); with Nakaseomyces glabratus, 1 µg/mL (≈ 1.2 µM); with Cryptococcus neoformans [2], 1 µg/mL (≈ 1.2 µM); in the test with Candida albicans [3], over 64 µg/mL.

Take `CN(Cc1ccc(OCCCOc2ccc(CC(=O)OCCCCOc3no[n+]([O-])c3S(=O)(=O)c3ccccc3)cc2)cc1)CC(O)(Cn1cncn1)c1ccc(F)cc1F` (stereo not given): the MIC80 with Candida albicans [1] is 4 µg/mL (≈ 4.64 µM); in the test on Nakaseomyces glabratus, 4 µg/mL (≈ 4.64 µM); in the test on Cryptococcus neoformans [2], 4 µg/mL (≈ 4.64 µM); in the test with Candida albicans [3], over 64 µg/mL.

`CN(Cc1ccc(CNCCCCCOc2no[n+]([O-])c2S(=O)(=O)c2ccccc2)cc1)CC(O)(Cn1cncn1)c1ccc(F)cc1F` (stereo not given): the MIC80 was 8 µg/mL (≈ 11.5 µM) in the test on Candida albicans [1], 8 µg/mL (≈ 11.5 µM) in the test with Nakaseomyces glabratus, 2 µg/mL (≈ 2.87 µM) in the test on Cryptococcus neoformans [2] and over 64 µg/mL in the test with Candida albicans [3].

As to `CN(Cc1ccc(OCCCOc2ccc(CC(=O)OCCCCO[N+](=O)[O-])cc2)cc1)CC(O)(Cn1cncn1)c1ccc(F)cc1F` (stereo not given), the MIC80 in the test with Candida albicans [1] was 2 µg/mL (≈ 2.93 µM); with Nakaseomyces glabratus it was 0.5 µg/mL (≈ 0.731 µM); with Cryptococcus neoformans [2], 0.5 µg/mL (≈ 0.731 µM); in the test with Candida albicans [3], over 64 µg/mL.

In the case of `CN(Cc1ccc(CNCCCOc2no[n+]([O-])c2S(=O)(=O)c2ccccc2)cc1)CC(O)(Cn1cncn1)c1ccc(F)cc1F` (stereo not given), the MIC80 in the test on Candida albicans [1] was determined as 16 µg/mL (≈ 23.9 µM); in the test with Nakaseomyces glabratus it was 8 µg/mL (≈ 11.9 µM); with Cryptococcus neoformans [2], 2 µg/mL (≈ 2.99 µM); in the test with Candida albicans [3], 32 µg/mL (≈ 47.8 µM).

Turning to `CN(Cc1ccc(OCCCOc2ccc(CC(=O)O[C@H]3CO[C@H]4[C@@H]3OC[C@H]4O[N+](=O)[O-])cc2)cc1)CC(O)(Cn1cncn1)c1ccc(F)cc1F` (stereo not given in full), the MIC80 with Candida albicans [1] is 4 µg/mL (≈ 5.41 µM); in the test on Nakaseomyces glabratus, 0.5 µg/mL (≈ 0.676 µM); with Cryptococcus neoformans [2], 1 µg/mL (≈ 1.35 µM); in the test with Candida albicans [3], 8 µg/mL (≈ 10.8 µM).

For the molecule `CN(Cc1ccc(OCCCOc2ccc(CC(=O)OCCCO[N+](=O)[O-])cc2)cc1)CC(O)(Cn1cncn1)c1ccc(F)cc1F` (stereo not given), the MIC80 with Candida albicans [1] is 1 µg/mL (≈ 1.49 µM); in the test on Nakaseomyces glabratus, 1 µg/mL (≈ 1.49 µM); with Cryptococcus neoformans [2], 0.125 µg/mL (≈ 0.187 µM); in the test on Candida albicans [3], over 64 µg/mL. The Activity entry in the test on Cryptococcus neoformans [5] was “Dose-Dependent Effect”. For the same molecule, the inhibition (usually how much of the control response was suppressed) at 0.25 µg/mL with Cryptococcus neoformans [6] is over 50%.

Consider `CN(Cc1ccc(CNCCOc2no[n+]([O-])c2S(=O)(=O)c2ccccc2)cc1)CC(O)(Cn1cncn1)c1ccc(F)cc1F` (stereo not given), for which the MIC80 with Candida albicans [1] amounted to 64 µg/mL (≈ 97.6 µM); in the test on Nakaseomyces glabratus, 8 µg/mL (≈ 12.2 µM); in the test with Cryptococcus neoformans [2], 2 µg/mL (≈ 3.05 µM); in the test on Candida albicans [3] it was 64 µg/mL (≈ 97.6 µM).

With `CN(Cc1ccc(OCCCOc2ccc(CC(=O)OCCCCCO[N+](=O)[O-])cc2)cc1)CC(O)(Cn1cncn1)c1ccc(F)cc1F` (stereo not given), the MIC80 was 1 µg/mL (≈ 1.43 µM) in the test with Candida albicans [1], 0.5 µg/mL (≈ 0.717 µM) with Nakaseomyces glabratus, 0.5 µg/mL (≈ 0.717 µM) in the test with Cryptococcus neoformans [2] and over 64 µg/mL in the test on Candida albicans [3].

In the case of `CN(CC(O)(Cn1cncn1)c1ccc(F)cc1F)c1cc(O/N=[N+](\[O-])N(C)CCO)c([N+](=O)[O-])cc1[N+](=O)[O-]` (stereo not given), the MIC80 with Candida albicans [1] was over 64 µg/mL; in the test on Nakaseomyces glabratus, over 64 µg/mL; with Cryptococcus neoformans [2], 64 µg/mL (≈ 113 µM); in the test with Candida albicans [3] it was over 64 µg/mL.

Take `CN(Cc1ccc(OCCCOc2ccc(CC(=O)OCCOCCOc3no[n+]([O-])c3S(=O)(=O)c3ccccc3)cc2)cc1)CC(O)(Cn1cncn1)c1ccc(F)cc1F` (stereo not given): the MIC80 in the test with Candida albicans [1] was 1 µg/mL (≈ 1.14 µM); in the test on Nakaseomyces glabratus, 1 µg/mL (≈ 1.14 µM); with Cryptococcus neoformans [2] it was 1 µg/mL (≈ 1.14 µM); in the test on Candida albicans [3], over 64 µg/mL.

As for `CN1CCN(/[N+]([O-])=N/Oc2cc(N(C)CC(O)(Cn3cncn3)c3ccc(F)cc3F)c([N+](=O)[O-])cc2[N+](=O)[O-])CC1` (stereo not given), the MIC80 was over 64 µg/mL in the test on Candida albicans [1], over 64 µg/mL in the test with Nakaseomyces glabratus, 64 µg/mL (≈ 108 µM) with Cryptococcus neoformans [2] and over 64 µg/mL in the test with Candida albicans [3].

Regarding `CN(Cc1ccc(OCCCOc2ccc(CC(=O)OCCCCCOc3no[n+]([O-])c3S(=O)(=O)c3ccccc3)cc2)cc1)CC(O)(Cn1cncn1)c1ccc(F)cc1F` (stereo not given), the MIC80 was 4 µg/mL (≈ 4.56 µM) in the test on Candida albicans [1], 4 µg/mL (≈ 4.56 µM) in the test on Nakaseomyces glabratus, 4 µg/mL (≈ 4.56 µM) with Cryptococcus neoformans [2] and over 64 µg/mL in the test with Candida albicans [3].

As to `CN(Cc1ccc(OCCCOc2ccc(CC(=O)OCCCCCCOc3no[n+]([O-])c3S(=O)(=O)c3ccccc3)cc2)cc1)CC(O)(Cn1cncn1)c1ccc(F)cc1F` (stereo not given), the MIC80 in the test with Candida albicans [1] is 8 µg/mL (≈ 8.98 µM); in the test on Nakaseomyces glabratus, 4 µg/mL (≈ 4.49 µM); in the test with Cryptococcus neoformans [2] it was 4 µg/mL (≈ 4.49 µM); in the test on Candida albicans [3], over 64 µg/mL.

Turning to `CN(CC(O)(Cn1cncn1)c1ccc(F)cc1F)c1cc(O/N=[N+](\[O-])N2CCC[C@@H]2CO)c([N+](=O)[O-])cc1[N+](=O)[O-]` (stereo not given in full), the MIC80 in the test with Candida albicans [1] was over 64 µg/mL; in the test with Nakaseomyces glabratus it was over 64 µg/mL; with Cryptococcus neoformans [2] it was 64 µg/mL (≈ 108 µM); with Candida albicans [3] it was over 64 µg/mL.

Turning to `CN(CC(O)(Cn1cncn1)c1ccc(F)cc1F)c1cc(O/N=[N+](\[O-])N2CCCC2)c([N+](=O)[O-])cc1[N+](=O)[O-]` (stereo not given), the MIC80 in the test on Candida albicans [1] was over 64 µg/mL; in the test with Nakaseomyces glabratus, over 64 µg/mL; in the test with Cryptococcus neoformans [2], 64 µg/mL (≈ 114 µM); with Candida albicans [3] it was over 64 µg/mL.

Turning to `CC1(C)N(O)C(c2ccccc2)=[N+]([O-])C1(C)C`, the inhibition entry in the test with Cryptococcus neoformans [7] was “inactive”.
